Results: patent US10875834B2, “Prodrug and protected forms of 5-hydroxymethylfurfuranal (5-HMF) and its derivatives” (VIRGINIA COMMONWEALTH UNIVERSITY, priority 2016, dated 2020)
“And” between values parts separate entries of the source, which are not always exact repeats. Identical values can stand only once. “Also recorded” adds a separate entry of the source. Like-named read-outs stand apart in the source and are kept apart here.

What was measured:
[1] = target: T1, sickle Hb (Hb S) (Homo sapiens, UniProt P69905); test: Hb adduct formation study (Hb S modification) with SS cells, cation-exchange HPLC; assay type: cell-based; conditions: for Modified Hb (%): 2 mM test compound, SS cells suspensions (20% hematocrit), mean ± SD, three experiments; for Hb modification relative to 5-HMF: 1, 2 and 5 mM
T1 construct: from tissue; host or cells: blood (red cells) of a subject with homozygous sickle cell disease; hemolysate analysed
Description: (§1) The twelve compounds, VZHE004, VZHE006, VZHE007, VZHE005, VZHE011, VZHE013, VZHE014, VZHE015, VZHE016, 5-PMFC, 5-CMFC, 5-NMFC, and the parent compound (positive control) 5-HMF were investigated for their abilities to prevent hypoxia-induced RBC sickling (RBC morphology study), increase sickle Hb oxygen affinity (oxygen equilibrium curve; OEC study), and modify sickle Hb (adduct formation study) as previously published (Abdulmalik et al., Br. J Haematol., 2005, 128, 552; Safo et al, J. Med. Chem, 2004, 47, 4665). Briefly, blood suspensions from a subject with homozygous SCD (hematocrit: 20%) were incubated under air in the absence or presence of 1, 2 and 5 mM concentration of test compounds at 37° C. for 1 hr to ensure that binding had attained equilibrium. Following, the suspensions were incubated under hypoxic condition (4% oxygen/96% nitrogen) at 37° C. for 2 hr. Aliquot samples were fixed with 2% glutaraldehyde solution without exposure to air, and then subjected to microscopic morphological analysis. The residual samples were washed in phosphate-buffered saline, and hemolyzed in hypotonic lysis buffer for subsequent analyses.
(§2) For the OEC study, approximately 100 μl aliquot samples from clarified lysate obtained from the antisickling study were added to 4 ml of 0.1M potassium phosphate buffer, pH 7.0, in a cuvette and subjected to hemoximetry analysis using Hemox™ Analyzer (TCS Scientific Corp.) to assess P50 shifts. Finally, for the Hb adduct formation study, clarified lysates, also from the above antisickling study, were subjected to cation-exchange HPLC (Hitachi D-7000 Series, Hitachi Instruments, Inc., San Jose, Calif.), using a weak cation-exchange column (Poly CAT A: 30 mm×4.6 mm, Poly LC, Inc., Columbia, Md.).

[2] = target: T2, sickle Hb oxygen affinity (Homo sapiens, UniProt P69905); test: Oxygen equilibrium curve (OEC) study, P50 shift of hemolysate from SS cells; assay type: cell-based; conditions: for AP50 (%): 2 mM test compound, hemolysate of SS cells, mean ± SD, three experiments; for P50 shift relative to 5-HMF: 1, 2 and 5 mM
T2 construct: from tissue; host or cells: blood (red cells) of a subject with homozygous sickle cell disease; hemolysate analysed
Description: as §1, §2

[3] = tested on: homozygous sickle red blood cells (SS cells); test: Antisickling (RBC morphology) study under hypoxia; assay type: cell-based, human
Description: as §1

[4] = both in-vitro and in-vivo; cited from earlier work
[5] = tested on: sickle cell disease; conditions: phase I/II human clinical studies; cited from earlier work
[6] = target: T3, Hb A (Homo sapiens, UniProt P69905); test: Time-dependent adduct formation study in normal whole blood; assay type: in vitro ADME; conditions: 2 mM, up to 24 hr
T3 construct: time-dependent studies on Hb adduct formation using normal whole blood; from tissue; host or cells: normal human whole blood (30% hct)
Method: The compounds, VZHE004, VZHE006, VZHE007, VZHE005, VZHE011, VZHE013, VZHE014, VZHE015, VZHE016, 5-PMFC, 5-NMFC, and the control 5-HMF were used to conduct time-dependent studies on Hb adduct formation using normal whole blood. The study was performed in a 96-well deepwell (Thermo Scientific) plate, where each compound at 2 mM concentration was added to 600 μL of whole blood (30% hct) and incubated at 37° C. for 24 hr with shaking (at 140 rpm). At 0.5 hr, 1 hr, 2 hr, 4 hr, 6 hr, 8 hr and 24 hr time intervals, 75 μL aliquot of blood was removed from each well using a multichannel pipette and added to respective tubes containing 75 μL of Na cyanoborohydride and borohydride mix (1:1 v/v 50 mM stock) to terminate the Schiff-base reaction, fix the Schiff-base adducts and reduce the reduce free reactive aldehyde (Davies et al., Food Chem. Toxicol. 2009, 47, 1950). We have previously optimized these conditions. After mixing, the tubes were stored immediately at −80° C. until ready for analysis to determine Hb adduct formation using cation-exchange HPLC (Hitachi D-7000 Series, Hitachi Instruments, Inc., San Jose, Calif.).

[7] = target: Hb (Homo sapiens, UniProt P69905); test: Incubation of Hb with VZHE004 for three days, UPLC-MS analysis; assay type: in vitro ADME; conditions: incubated with Hb for three days
Description: The overall tetrameric structure is indistinguishable (rmsd ˜0.4 Å) from 1BBB or the R2 structure in complex with 5-HMF (PDB code 1QXE). Like 5-HMF we also observed a pair of VZHE004 molecules covalently bound to the N-terminal αVal1 amines (Schiff-base interaction) in a symmetry-related fashion at the α-cleft (FIG. 7). The electron density of VZHE004 was relatively weak especially at the methyl acetate position. As such, the compound was refined as 5-HMF at the α1Val1 site, while the full VZHE004 was modelled at the α2Val1 binding site but with the methyl acetate refined in two alternate conformations (FIG. 7a). However, to make sure that the disorder is not due to partial hydrolytic cleavage of the ester, Hb and VZHE004 were incubated for three days.

[8] = Homo sapiens, Erythrocyte, 2 mM test compound, SS cells 20% hematocrit, hypoxia 4% oxygen/96% nitrogen, mean ± SD, read-out: Inhibition of Sickling (%)
[9] = Homo sapiens, Erythrocyte, 2 mM, read-out: RBC sickling inhibition
[10] = Homo sapiens, Erythrocyte, 5 mM, read-out: RBC sickling inhibition
[11] = 2 mM test compound, SS cells 20% hematocrit, hypoxia 4% oxygen/96% nitrogen, mean ± SD

T1 sequence (P69905 2-142 limits assumed): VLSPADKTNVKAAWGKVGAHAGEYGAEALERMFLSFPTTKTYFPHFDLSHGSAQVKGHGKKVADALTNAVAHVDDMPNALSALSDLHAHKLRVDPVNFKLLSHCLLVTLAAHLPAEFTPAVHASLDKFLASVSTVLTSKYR
T2 sequence (P69905 2-142 limits assumed): as above
T3 sequence (P69905 2-142 limits assumed): as above
T3 sequence (P68871 2-147 partner limits assumed): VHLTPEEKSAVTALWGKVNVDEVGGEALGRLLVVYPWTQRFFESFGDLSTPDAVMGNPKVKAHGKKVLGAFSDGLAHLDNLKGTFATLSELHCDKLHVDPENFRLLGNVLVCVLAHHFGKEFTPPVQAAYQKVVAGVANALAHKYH
Chain of Hb (P69905 2-142 limits assumed): as the sequence (P69905 2-142 limits assumed) above
Chain of Hb (P68871 2-147 partner limits assumed): as the sequence (P68871 2-147 partner limits assumed) above

SMILES | Modified Hb (%) [1] [%] | AP50 (%) [2] [%] | P50 shift relative to 5-HMF [2] | inhibition at 2000 µM [3, 8] [%] | inhibition at 2000 µM [3, 9] [%] | antisickling effect ([3]; over 1, 2 and 5 mM) | inhibition at 5000 µM [3, 10] [%] | also measured
O=Cc1ccc(COc2ccc(Cl)cc2)o1 [Compound 5-CMFC, 5-((4-chlorophenoxy)methyl)-2-furan carbaldehyde] | 26.7 ± 6.5 | 13.2 ± 5.2 | significantly less P50 shift than 5-HMF; also recorded: lower degrees of shift than 5-HMF | 2 ± 1.9 | < 10 | barely showed any antisickling activity; also recorded: poor antisickling effects | – | antisickling effect ([3]; 5 mM): barely showed any antisickling effect
O=Cc1ccc(CO)o1 [Compound 5-HMF, 5-hydroxymethyl-2-furfural, reference compound] | 32.8 ± 1.6 | 33.4 ± 0.9 | – | 25.7 ± 4.4 | 26 | – | – | RBC sickling inhibition ([3]; 2 mM): ~23% and ~26%; half-life in plasma [4]: 1 to 1.5 h; effective dose [5]: 2-4 gm
O=Cc1ccc(COc2ccccc2[N+](=O)[O-])o1 [Compound 5-NMFC, 5-((2-nitrophenoxy)methyl)-2-furan carbaldehyde] | 40.5 ± 17.6 | 13.4 ± 5.7 | significantly less P50 shift than 5-HMF; also recorded: lower degrees of shift than 5-HMF | 10.3 ± 0.5 | < 10 | barely showed any antisickling activity; also recorded: poor antisickling effects | < 10 | Hb modification relative to 5-HMF [1]: superior Hb modification; antisickling effect ([3]; 5 mM): barely showed any antisickling effect; metabolic profile / decline of Hb adduct in whole blood [6]: exhibit some resistance to metabolism
O=Cc1ccc(COc2ccccc2)o1 [Compound 5-PMFC, 5-(phenoxymethyl)-2-furan carbaldehyde] | 60.53 ± 5.3 | 45.4 ± 14.6 | better P50 sift than 5-HMF | 94.7 ± 0.1 | – | – | – | Hb modification relative to 5-HMF [1]: superior Hb modification; RBC sickling inhibition ([3]; 2 mM): ~95%; antisickling effect ([3]; 2 mM): attained maximum effect; inhibition at 1000 µM ([3]; Homo sapiens, Erythrocyte, 1 mM, read-out: RBC sickling inhibition): ~17%; metabolic profile / decline of Hb adduct in whole blood [6]: exhibit some resistance to metabolism
CC(=O)OCc1ccc(C=O)o1 [VZHE004, (5-formylfuran-2-yl)methyl acetate] | 43.5 ± 8.4 | 44.6 ± 11.9 | – | 26.3 ± 4.4 | – | – | 60 | RBC sickling inhibition ([3]; 5 mM): ~60%; stability of the ester against hydrolytic cleavage (UPLC-MS) [7]: intact
CC(C)(C)OC(=O)OCc1ccc(C=O)o1 [VZHE006, tert-Butyl ((5-formylfuran-2-yl)methyl) carbonate] | 50.0 ± 3.0 | 44.8 ± 12.9 | – | 71.6 ± 0.1 | 35 to 95 | – | > 95 | –
O=Cc1ccc(COC(=O)c2ccccc2)o1 [VZHE007, (5-Formylfuran-2-yl)methyl Benzoate] | 44.5 ± 6.0 | 38.9 ± 11.9 | – | 10 ± 5.9 | – | poor antisickling effects | ~83 | –
CCOCc1ccc(C=O)o1 [VZHE011, 5-(Ethoxymethyl)-2-furan Carboxadehyde] | 40.4 ± 3.9 | 39.8 ± 0.8 | – | 58.8 ± 7 | 35 to 95 | – | – | antisickling effect ([3]; 2 mM): superior
CC(C)(C)OCc1ccc(C=O)o1 [VZHE013, 5-(tert-Butoxymethyl)furan-2-carbaldehyde] | 15.7 ± 4.3 | 24.0 ± 5.6 | weaker | 7.4 ± 6.9 | – | very little antisickling activity; also recorded: barely showed any antisickling activity; also recorded: poor antisickling effects | – | Hb modification relative to 5-HMF [1]: weaker adduct formation; % P50 shift ([2]; 1 mM): 16%; % P50 shift ([2]; 2 mM): 24%; % P50 shift ([2]; 5 mM): 46%; sickling inhibition (antisickling effect) ([3]; at all three concentrations (1, 2 and 5 mM)): less than 5%
COP(=O)(OC)OCc1ccc(C=O)o1 [VZHE014, (5-Formylfuran-2-yl)methyl Dimethyl Phosphate] | 19.7 ± 6.3 | 35.7 ± 8.1 | – | – | – | poor antisickling effects | – | Inhibition of Sickling (%) [3, 11]: 8.4 ± 5.9%; RBC sickling inhibition ([3]; 5 mM): 43% and ~40%
CCCOCc1ccc(C=O)o1 [VZHE015, 5-(Propoxymethyl)-2-furan Carboxadehyde] | 39.7 ± 8.2 | 44.0 ± 9.7 | – | 62.9 ± 6.2 | 35 to 95 | – | – | antisickling effect ([3]; 2 mM): superior
CC(C)OCc1ccc(C=O)o1 [VZHE016, 5-(isopropoxymethyl)-2-furan Carboxadehyde] | 36.4 ± 9.7 | 38.4 ± 10.4 | – | – | – | – | – | RBC sickling inhibition ([3]; 2 mM): ~16%; Inhibition of Sickling (%) [3, 11]: 22.5 ± 8.8%
